In data set [1] the test system is MES-induced tonic hindlimb extension in male CD-1 mice. The experiment in a line: MES acute seizure model, protection from tonic hindlimb extension (Example 9). The class given is in vivo, mouse. On the procedure: Male CD-1 mice (Vital River, Beijing, China) approximately 6 weeks old were obtained for the study. Body weights were between 20.5 grams and 38.5 grams at the time the experiments were carried out. […] Food and water were available ad libitum.
Treatment was conducted using Compound 1 and 35% 2-hydroxypropyl-β-cyclodextrin (35% HPBCD, used as a negative control). Compound 1 stock solution was prepared fresh each experiment day in 35% HPBCD and protected from light. The stock solution was diluted with vehicle for lower doses.
Mice were brought to the test room at least one hour before the start of the experiment. Mice were administered valproate (VPA; 400 mg/kg, intraperitoneally); or vehicle (35% HPBCD, 10 mL/kg, intraperitoneally); or Compound 1 (0.3 mg/kg, 1 mg/kg, 3 mg/kg or 10 mg/kg, orally) 30 minutes prior to the MES test.
The electroshock apparatus was set to deliver a 50 mA square-wave stimulus, with a 0.8 second duration, a pulse width of 10 milliseconds, and a frequency of 50 Hz. A pair of custom stainless-steel electrodes were soaked in 0.2% agar, and then the subject received bilateral transauricular stimulation through ear-clip electrodes. During the stimulation, mice were manually restrained then released immediately into an observation cage where they were monitored continuously for 60 seconds by an observer blinded to treatment group.
Mice were anesthetized with CO2 and terminal plasma and brain tissue samples were collected. […] The supernatant plasma was pipetted into Eppendorf tubes.
All statistical analyses were conducted using GraphPad Prism 9.3. Means were combined and standard error was calculated using the Satterthwaite Approximation to combine standard deviations. […] ED50 and EC50 values were calculated from these fit curves.

A further data set can be described thus: in vivo. The following applies: rat.
Another data set has as its target T1, human NaV1.6 (Homo sapiens, UniProt Q9UQD0).
T1 construct: HEK-293 cell lines stably expressing human NaV1.6 (NP_055006) were used; expressed in transfected cells
The experiment in a line: Peak INa tonic block (TB), automated patch clamp in HEK cells. It counts as cell-based. (In general: The patch-clamp technique gives a direct electrical read-out from membranes.)

The next data set addresses T2, hNaV1.6 (Homo sapiens, UniProt Q9UQD0).
T2 construct: expressed in transfected cells; host or cells: HEK cells
The experiment in a line: Peak INa voltage-dependent block (VDB), automated patch clamp in HEK cells. The class given is cell-based.

Data set [2] can be described thus: Spontaneous locomotor activity (sLMA) (Example 4). The class given is in vivo, mouse. The following applies: male, CD-1, mouse, in vivo, po, 30 min post-dose, 30-minute test. On the procedure: (§1) Food and water were available ad libitum.
(§2) Dosing solutions were prepared on each experiment day. […] All solutions were protected from light. Samples from dosing solutions were stored at 4° C.
(§3) The sLMA test was carried out over two days. Half of the mice from each treatment group was tested on each day.
(§4) Animals were p.o. administered Compound 1 or 35% HPBCD (vehicle) 30 minutes prior to the sLMA test.
(§5) All mice were anesthetized with CO2. […] The supernatant plasma was pipetted into Eppendorf tubes.
(§6) An aliquot of 20 μL unknown sample, calibration standard, quality control, dilute quality control, single blank and double blank sample was added to a 1.5 mL tube. Each sample (except the double blank) was quenched with 300 μL IS solution (double blank sample was quenched with 300 μL ACN), and then the mixture was vortex-mixed well for at least 15 seconds and centrifuged for 15 minutes at 12000 g, 4° C. 65 μL supernatant was transferred to a 96-well plate and centrifuged for 5 minutes at 3220 g, 4° C. Then 3 μL supernatant was directly injected for LC-MS/MS analysis.
(§7) Brain homogenate was prepared by homogenizing brain tissue with 5 volumes (w:v) of cold 15 mM PBS/MeOH (V:V, 2:1). An aliquot of 40 μL unknown sample, calibration standard, quality control, dilute quality control, single blank and double blank sample was added to a 1.5 mL tube. Each sample (except the double blank) was quenched with 600 μL IS solution (double blank sample was quenched with 600 μL ACN), and then the mixture was vortex-mixed well for at least 15 seconds and centrifuged for 15 minutes at 12000 g, 4° C. 65 μL supernatant was transferred to a 96-well plate and centrifuged for 5 minutes at 3220 g, 4° C. Then 3 μL of the supernatant was directly injected for LC-MS/MS analysis.

Data set [3] relates to spontaneous locomotor activity in male CD-1 mice. The experiment in a line: Spontaneous locomotor activity (sLMA) (Example 4). It counts as in vivo, mouse. On the procedure: as §1, §2, §3, §4, §5, §6, §7

The results in this text go back to US20250041284A1, “TREATMENT OF NEUROLOGICAL DISORDERS” (Praxis Precision Medicines, Inc., priority 2022, published 2025).

Entries after “also recorded” stand apart in the source; their conditions may differ.

T1 sequence (Q9UQD0 whole entry): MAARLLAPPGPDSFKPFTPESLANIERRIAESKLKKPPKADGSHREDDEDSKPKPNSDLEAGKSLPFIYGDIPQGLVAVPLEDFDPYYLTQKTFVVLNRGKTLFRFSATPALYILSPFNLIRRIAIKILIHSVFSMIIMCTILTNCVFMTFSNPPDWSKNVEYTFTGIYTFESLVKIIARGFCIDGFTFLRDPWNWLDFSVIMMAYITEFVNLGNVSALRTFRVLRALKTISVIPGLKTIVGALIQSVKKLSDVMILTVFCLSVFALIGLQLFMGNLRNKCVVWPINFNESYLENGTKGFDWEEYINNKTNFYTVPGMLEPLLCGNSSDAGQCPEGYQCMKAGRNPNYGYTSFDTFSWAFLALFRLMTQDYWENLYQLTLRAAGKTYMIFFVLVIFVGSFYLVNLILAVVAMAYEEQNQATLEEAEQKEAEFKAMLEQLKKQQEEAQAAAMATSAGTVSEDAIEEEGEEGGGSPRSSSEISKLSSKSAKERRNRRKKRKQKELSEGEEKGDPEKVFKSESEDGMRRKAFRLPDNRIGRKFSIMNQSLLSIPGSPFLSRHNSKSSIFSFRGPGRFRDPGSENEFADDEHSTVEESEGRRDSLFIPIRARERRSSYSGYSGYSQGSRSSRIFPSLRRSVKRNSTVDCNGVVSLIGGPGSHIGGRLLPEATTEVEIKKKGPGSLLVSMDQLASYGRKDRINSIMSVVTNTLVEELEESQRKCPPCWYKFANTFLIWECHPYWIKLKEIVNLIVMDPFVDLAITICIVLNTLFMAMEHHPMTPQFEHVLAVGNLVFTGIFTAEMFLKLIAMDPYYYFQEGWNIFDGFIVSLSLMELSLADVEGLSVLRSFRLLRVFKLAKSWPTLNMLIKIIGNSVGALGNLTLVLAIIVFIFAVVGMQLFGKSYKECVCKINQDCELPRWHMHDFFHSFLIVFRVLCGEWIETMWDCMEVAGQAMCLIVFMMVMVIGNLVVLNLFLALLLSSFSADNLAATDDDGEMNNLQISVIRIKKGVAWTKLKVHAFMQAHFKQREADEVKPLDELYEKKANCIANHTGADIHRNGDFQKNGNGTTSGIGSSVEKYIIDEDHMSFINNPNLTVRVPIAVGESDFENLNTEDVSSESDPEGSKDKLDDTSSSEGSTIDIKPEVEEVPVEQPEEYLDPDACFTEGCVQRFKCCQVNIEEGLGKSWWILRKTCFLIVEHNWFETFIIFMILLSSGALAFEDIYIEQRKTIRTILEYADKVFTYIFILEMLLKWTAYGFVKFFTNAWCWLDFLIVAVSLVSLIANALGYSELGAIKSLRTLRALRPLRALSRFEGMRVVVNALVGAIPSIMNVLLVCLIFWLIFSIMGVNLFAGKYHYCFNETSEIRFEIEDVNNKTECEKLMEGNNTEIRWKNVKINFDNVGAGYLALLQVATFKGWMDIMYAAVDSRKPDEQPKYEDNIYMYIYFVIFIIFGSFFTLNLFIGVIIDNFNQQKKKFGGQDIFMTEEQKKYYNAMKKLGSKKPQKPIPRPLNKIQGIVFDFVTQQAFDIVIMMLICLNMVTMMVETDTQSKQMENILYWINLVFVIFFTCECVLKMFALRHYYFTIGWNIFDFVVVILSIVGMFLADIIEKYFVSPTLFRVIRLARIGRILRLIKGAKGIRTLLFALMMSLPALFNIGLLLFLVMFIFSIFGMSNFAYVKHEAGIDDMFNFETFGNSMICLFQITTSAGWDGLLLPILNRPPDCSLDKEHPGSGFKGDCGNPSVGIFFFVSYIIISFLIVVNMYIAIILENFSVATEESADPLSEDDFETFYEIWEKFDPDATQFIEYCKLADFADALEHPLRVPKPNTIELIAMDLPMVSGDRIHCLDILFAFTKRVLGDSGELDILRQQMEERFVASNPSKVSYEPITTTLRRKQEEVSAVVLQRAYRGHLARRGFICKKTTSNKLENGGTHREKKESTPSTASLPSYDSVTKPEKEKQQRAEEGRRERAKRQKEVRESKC
T2 sequence (Q9UQD0 whole entry): as above

What is called ED50 is the dose that gives a 50% effect, or the effect in half of the subjects. A lower ED50 goes with greater potency. As a reminder, the AUC(0-inf) is total exposure, with the tail of the curve extrapolated. High values mean more exposure, low ones less exposure. A word on the IC50: it is the concentration that inhibits the measured activity by half. A lower IC50 goes with greater potency. As a reminder, the TD50 is the 50% point of the dose-response relation for the toxic effect studied. Low values mean harm at a small dose, high ones harm only at a large dose. For `CCOC(F)(F)c1nnc2ccc(-c3cnc(OCC(F)(F)F)c(F)c3)cn12` [Compound 1], the “sedation or ataxia before MES test” value is recorded as “some mice showed sedation or ataxia; also recorded: six of thirty mice showed mild to moderate sedation” in data set [1] (10 mg/kg orally) and “No sedation or ataxia was observed; also recorded: No sedation was observed” in data set [1] (0.3 to 3 mg/kg orally). The molecule further showed a median effective dose (ED50) in data set [1] (Mus musculus, administered dose) of 0.42 mg/kg. This molecule also registered an area under the curve AUC(0-inf) in the data set “in vivo” of 7500 ng·h/mL. Moreover, the “Ratio to Pers. INa (Peak INa TB)” value at human NaV1.6 (peak INa TB IC50 / persistent INa IC50) came out at 68. Further, the “Peak INa TB Hill slope” value at human NaV1.6 (tonic block) is reported as “(1.0)”. In addition, the IC50 stood at 8.71 µM on human NaV1.6 (tonic block, Vm -120 mV, 0.2 Hz) and 0.072 µM on hNaV1.6 (voltage-dependent block, Vm inactivation V1/2). The “Ratio to Pers. INa (Peak INa VDB)” value at hNaV1.6 (VDB IC50 / persistent INa IC50) worked out at 0.56. For the same molecule, the “Peak INa VDB Hill slope” value at hNaV1.6 (voltage-dependent block) was “(1.0)”. In data set [2], this molecule came in with a TD50 of 10.3 mg/kg. Besides, the “total traveling distance in the 30-minute sLMA test” value in data set [3] (10 and 20 mg/kg p.o.) is “significantly reduced total traveling distance; also recorded: significantly reduced locomotor activity”. Also, in data set [3] (p.o., 30 min post-dose, 30-minute test), the “sLMA TD50” value is reported as 10.27 mg/kg. Further, the “sLMA plasma TC50” value in data set [3] (plasma concentration) stood at 1123 ng/g.
